Test results from paper PMC3959898 (Molecular microbiology, 2014).

Legend:
CqsSPa^S168C = assay type: cell-based, Photobacterium angustum; conditions: Fig. S2
CqsSPa = assay: V. harveyi bioluminescent reporter strain expressing cqsSPa; assay type: cell-based, Photobacterium angustum; conditions: for EC50: dose-dependent bioluminescence response
CqsSVh = molecular target: T1, CqsSVh (Vibrio campbellii, UniProt A7N6S2); assay: V. harveyi bioluminescent reporter strain expressing cqsSVh; assay type: cell-based, Vibrio harveyi
T1 sequence (A7N6S2 1-681): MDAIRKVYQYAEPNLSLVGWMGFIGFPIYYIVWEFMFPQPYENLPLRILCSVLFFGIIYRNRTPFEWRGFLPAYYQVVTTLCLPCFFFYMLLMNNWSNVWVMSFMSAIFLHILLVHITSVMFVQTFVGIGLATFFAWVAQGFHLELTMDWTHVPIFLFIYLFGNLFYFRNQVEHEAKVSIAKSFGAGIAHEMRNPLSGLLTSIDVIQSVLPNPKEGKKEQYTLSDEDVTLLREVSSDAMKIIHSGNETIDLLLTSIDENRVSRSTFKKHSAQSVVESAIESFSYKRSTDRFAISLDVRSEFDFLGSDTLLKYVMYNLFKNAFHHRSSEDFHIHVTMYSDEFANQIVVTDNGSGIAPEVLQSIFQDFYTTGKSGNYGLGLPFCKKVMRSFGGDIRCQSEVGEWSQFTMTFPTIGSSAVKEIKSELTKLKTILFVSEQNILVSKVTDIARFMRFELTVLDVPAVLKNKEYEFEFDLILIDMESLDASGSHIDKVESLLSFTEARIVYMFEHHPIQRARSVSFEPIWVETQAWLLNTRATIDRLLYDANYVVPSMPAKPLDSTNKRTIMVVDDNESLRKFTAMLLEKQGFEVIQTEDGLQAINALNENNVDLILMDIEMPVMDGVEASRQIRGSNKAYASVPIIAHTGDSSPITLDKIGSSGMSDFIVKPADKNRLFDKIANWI

CqsSVc = CqsSVc (Vibrio cholerae serotype O1, UniProt Q9KM66); assay: V. harveyi bioluminescent reporter strain expressing cqsSVc; assay type: cell-based
CqsSVc, sequence (Q9KM66 whole entry, looked up): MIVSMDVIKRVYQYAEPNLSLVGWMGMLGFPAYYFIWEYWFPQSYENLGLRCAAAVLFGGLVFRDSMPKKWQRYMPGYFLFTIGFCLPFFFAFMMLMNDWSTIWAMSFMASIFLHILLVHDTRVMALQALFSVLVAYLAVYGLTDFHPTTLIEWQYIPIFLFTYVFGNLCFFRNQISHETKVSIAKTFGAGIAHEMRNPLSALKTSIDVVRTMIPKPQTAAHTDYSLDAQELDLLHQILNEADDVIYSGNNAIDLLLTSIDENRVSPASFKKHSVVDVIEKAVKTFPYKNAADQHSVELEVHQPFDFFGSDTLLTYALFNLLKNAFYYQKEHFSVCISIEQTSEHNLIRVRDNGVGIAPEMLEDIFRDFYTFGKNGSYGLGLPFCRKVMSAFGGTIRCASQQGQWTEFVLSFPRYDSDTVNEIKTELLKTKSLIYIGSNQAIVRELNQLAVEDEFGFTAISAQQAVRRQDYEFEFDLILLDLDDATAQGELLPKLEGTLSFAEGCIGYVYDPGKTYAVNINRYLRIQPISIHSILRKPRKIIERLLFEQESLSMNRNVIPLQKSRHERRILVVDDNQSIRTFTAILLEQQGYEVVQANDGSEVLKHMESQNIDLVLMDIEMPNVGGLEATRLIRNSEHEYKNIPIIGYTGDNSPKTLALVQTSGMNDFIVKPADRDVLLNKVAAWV

Structure (SMILES)	detection of CAI-1 molecules (CqsSPa^S168C)	EC50 (CqsSPa; reporter expressing CqsSPa)	increase in light production (CqsSPa; reporter carrying cqsSPa, synthetic molecule at 5 μM)	EC50 (CqsSVh)	light production (CqsSVh; reporter carrying cqsSVh, synthetic molecule at 5 μM)	response (light production) in dose-response (CqsSPa; reporter expressing CqsSPa)	EC50 (CqsSVc)
CCCCCCCCCC(=O)[C@@H](O)CC [C10-CAI-1, (S)-3-hydroxytridecan-4-one]	retained the ability to detect	12 nM	~ 1000 fold	–	–	–	–
C/C=C(\N)C(=O)CCCCCCC [Ea-C8-CAI-1, (Z)-3-aminoundec-2-en-4-one]	–	–	–	100 nM	produced light	modest response	–
C/C=C(\N)C(=O)CCCCCCCCC [Ea-C10-CAI-1]	retained the ability to detect	4 nM	–	–	–	–	150 nM
